The source of these data is patent US20240166617A1, “PHOSPHOINOSITIDE 3 KINASE BETA INHIBITORS AND COMPOSITIONS AND METHODS THEREOF” (Geode Therapeutics Inc., priority 2021, published 2024).

The subject of the assay is phosphorylation of AKT in HCC70 cells. The assay can be described thus: Cellular assay: phosphorylation of AKT in HCC70 cells (western blotting). The format is cell-based. The settings on record: Homo sapiens, HCC70, 1 h. The procedure:
Cellular activity of PI3Kβ inhibitors was determined by quantifying the phosphorylation of AKT in HCC70 cells. AKT phosphorylated at Ser473 and Thr308 were measured using western blotting and specific primary antibodies from Cell Signaling (CST), Danvers, MA. On day 1, HCC70 cells (ATCC #CRL-2315) were seeded into Falcon 12-well cell Culture Plate (Corning #353043) at 100,000 cells per well, in 1 ml complete culture medium (RPMI-1640, GIBCO #11875093) containing 10% heat inactivated FBS (GIBCO #10438026), 1% Pen-Strep (GIBCO #15140122) and incubated at 37° AC, 5% CO2 overnight. On day 2, compound (500 nM) or DMSO (0.1%, Sigma Aldrich #8418) was added and cells were further incubated for 60 min at 37° AC, 5% CO2 in a total volume of 1 ml fresh medium.
At the end of the cell treatment period, media were removed by aspiration and adherent cells were lysed in 100 uL RIPA buffer (Sigma Aldrich #R0278). Equal volume (15 uL) of proteins was resolved by SDS-PAGE and transferred to PVDF (Millipore #IPFL00010) membrane for immunoblot analysis. Primary antibodies to the following proteins were used for immunoblotting: phosphor-AKT (Ser473) (CST #4060), phosphor-AKT (Thr308) (CST #2965), total AKT (CST #9272). Secondary goat anti-rabbit IgG fluorophore conjugated antibody (Invitrogen #A21109) was used to visualize the indicated proteins on an Odyssey CLx imaging system (Li-Cor). Quantification of band intensities was performed using Odyssey 3.0 software. Inhibition of Akt activity was calculated by band intensities using the formula: […]
Index was evaluated by % of AI. Data represent Index+(20˜60%), ++(60%˜80%), +++(80%˜90%), and ++++>90%.
For orientation: In western blotting, separated proteins are transferred to a membrane and probed.

[1] abbreviates: HCC70 cells, compound 500 nM, 60 min, inhibition of Akt activity from band intensities, read-out: Index of AI (HCC70) p-AKT Thr 308.
Setting [2] is: HCC70 cells, compound 500 nM, 60 min, inhibition of Akt activity from band intensities, read-out: Index of AI (HCC70) p-AKT ser 473.

Where two headings read alike, the source gives them in different places.

On to `CC1(C#N)CN(C(=O)c2cc(CN3CCc4c(F)cc(F)cc43)c3oc(N4CCOCC4)cc(=O)c3c2)C1` [Compound 88, 1-(8-((4,6-difluoroindolin-1-yl)methyl)-2-morpholino-4-oxo-4H-chromene-6-carbonyl)-3-methylazetidine-3-carbonitrile], for which the inhibition at 0.5 µM under setting [1] lay within 60 to 80% and the inhibition at 0.5 µM under setting [2] was in the range of 60 to 80%.

As for `Cc1cc(CN2CCc3c(F)cc(F)cc32)c2nc(N3CCOCC3)cc(=O)n2c1` [Compound 54, 9-((4,6-difluoroindolin-1-yl)methyl)-7-methyl-2-morpholino-4H-pyrido[1,2-a]pyrimidin-4-one], the inhibition at 0.5 µM under setting [1] was in the range of 20 to 60% and the inhibition at 0.5 µM under setting [2] lay within 20 to 60%.

`CN(C)C1CN(C(=O)c2cc(CN3CCc4c(F)cc(F)cc43)c3oc(N4CCOCC4)cc(=O)c3c2)C1` [Compound 46, 8-((4,6-difluoroindolin-1-yl)methyl)-6-(3-(dimethylamino)azetidine-1-carbonyl)-2-morpholino-4H-chromen-4-one]: the inhibition at 0.5 µM by setting is: under setting [1], 80 to 90%; under setting [2], 80 to 90%.

For the compound `CN(C)C(=O)c1cc(CN2CCc3c(F)ccc(Cl)c32)c2oc(N3CCOCC3)cc(=O)c2c1` [Compound 62, 8-((7-chloro-4-fluoroindolin-1-yl)methyl)-N,N-dimethyl-2-morpholino-4-oxo-4H-chromene-6-carboxamide], the inhibition at 0.5 µM lay within 80 to 90% under setting [1] and 80 to 90% under setting [2].

As to `CN(C)c1cc(CNc2cc(F)cc(F)c2)c2oc(N3CCOCC3)cc(=O)c2c1` [Compound 2, 8-(((3,5-difluorophenyl)amino)methyl)-6-(dimethylamino)-2-morpholino-4H-chromen-4-one], the inhibition at 0.5 µM by setting is: under setting [1], 60 to 80%; under setting [2], 60 to 80%.

In the case of `CCC(Nc1cc(F)cc(F)c1)c1cc(C(=O)N(C)C)cc2c(=O)cc(N3CCOCC3)oc12` (centres unmarked) [Compound 31, 8-(1-((3,5-difluorophenyl)amino)propyl)-N,N-dimethyl-2-morpholino-4-oxo-4H-chromene-6-carboxamide], the inhibition at 0.5 µM runs as follows: under setting [1], over 90%; under setting [2], over 90%.

Regarding `CC(c1cc(C(=O)N(C)C)cc2c(=O)cc(N3CCOCC3)oc12)N1CCc2c(F)cc(F)cc21` (centres unmarked) [Compound 37, 8-(1-(4,6-difluoroindolin-1-yl)ethyl)-N,N-dimethyl-2-morpholino-4-oxo-4H-chromene-6-carboxamide], the inhibition at 0.5 µM under setting [1] fell in the range of 80 to 90% and the inhibition at 0.5 µM under setting [2] fell in the range of 80 to 90%.

In the case of `Cc1cc(CN2c3cccc(F)c3CC2C)c2nc(N3CCOCC3)cc(=O)n2c1` (centres unmarked) [Compound 53, 9-((4-fluoro-2-methylindolin-1-yl)methyl)-7-methyl-2-morpholino-4H-pyrido[1,2-a]pyrimidin-4-one], the inhibition at 0.5 µM under setting [1] was in the range of 60 to 80% and the inhibition at 0.5 µM under setting [2] lay in the range of 60 to 80%.

With `CN(C)C(=O)c1cc(CN2CCc3ccc(F)cc32)c2oc(N3CCOCC3)cc(=O)c2c1` [Compound 70, 8-((6-fluoroindolin-1-yl)methyl)-N,N-dimethyl-2-morpholino-4-oxo-4H-chromene-6-carboxamide], the inhibition at 0.5 µM under setting [1] lay within 80 to 90% and the inhibition at 0.5 µM under setting [2] fell in the range of 80 to 90%.

Turning to `CN(C)C(=O)c1cc(CN2CCc3c(F)cc(F)cc32)c2oc(N3CCO[C@H](CF)C3)cc(=O)c2c1` [Compound 93, (S)-8-((4,6-difluoroindolin-1-yl)methyl)-2-(2-(fluoromethyl)morpholino)-N,N-dimethyl-4-oxo-4H-chromene-6-carboxamide], the inhibition at 0.5 µM under setting [1] lay within 80 to 90% and the inhibition at 0.5 µM under setting [2] is 80 to 90%.

With `O=C(NC1CCOCC1)c1cc(CN2CCc3c(F)cc(F)cc32)c2oc(N3CCOCC3)cc(=O)c2c1` [Compound 83, 8-((4,6-difluoroindolin-1-yl)methyl)-2-morpholino-4-oxo-N-(tetrahydro-2H-pyran-4-yl)-4H-chromene-6-carboxamide], the inhibition at 0.5 µM is, setting by setting: under setting [1], 60 to 80%; under setting [2], 60 to 80%.

Regarding `CC(=O)N(C)c1cc(C(C)Nc2cc(F)cc(F)c2)c2oc(N3CCOCC3)cc(=O)c2c1` (centres unmarked) [Compound 9, N-(8-(1-((3,5-difluorophenyl)amino)ethyl)-2-morpholino-4-oxo-4H-chromen-6-yl)-N-methylacetamide], the inhibition at 0.5 µM was 80 to 90% under setting [1] and 80 to 90% under setting [2].

With `CN(C)C1CCN(C(=O)c2cc(CN3CCc4c(F)cc(F)cc43)c3oc(N4CCOCC4)cc(=O)c3c2)C1` (centres unmarked) [Compound 43, 8-((4,6-difluoroindolin-1-yl)methyl)-6-(3-(dimethylamino)pyrrolidine-1-carbonyl)-2-morpholino-4H-chromen-4-one], the inhibition at 0.5 µM runs as follows: under setting [1], 80 to 90%; under setting [2], 80 to 90%.

Regarding `CC(c1cc(C(=O)N2CC[C@@H](N(C)C)C2)cn2c(=O)cc(N3CCOCC3)nc12)N1CCc2cccc(Cl)c21` (stereo partly drawn) [Compound 97, 9-(1-(7-chloroindolin-1-yl)ethyl)-7-((R)-3-(dimethylamino)pyrrolidine-1-carbonyl)-2-morpholino-4H-pyrido[1,2-a]pyrimidin-4-one], the inhibition at 0.5 µM was in the range of 20 to 60% under setting [1] and 20 to 60% under setting [2].

With `C[C@H]1Cc2c(F)cccc2N1Cc1cc(C(=O)N(C)C)cc2c(=O)cc(N3CCOCC3)oc12` (single isomer, unassigned) [Compound 102], the inhibition at 0.5 µM reads like this: under setting [1], over 90%; under setting [2], over 90%.

For the compound `COc1cccc2c1N(Cc1cc(C(=O)N(C)C)cc3c(=O)cc(N4CCOCC4)oc13)CC2` [Compound 72, 8-((7-methoxyindolin-1-yl)methyl)-N,N-dimethyl-2-morpholino-4-oxo-4H-chromene-6-carboxamide], the inhibition at 0.5 µM was 20 to 60% under setting [1] and 20 to 60% under setting [2].

For the compound `CN(C)C(=O)c1cc(CN2CCc3c(Cl)ccc(F)c32)c2nc(N3CCOCC3)cc(=O)n2c1` [Compound 100, 9-((4-chloro-7-fluoroindolin-1-yl)methyl)-N,N-dimethyl-2-morpholino-4-oxo-4H-pyrido[1,2-a]pyrimidine-7-carboxamide], the inhibition at 0.5 µM under setting [1] is 80 to 90% and the inhibition at 0.5 µM under setting [2] lay within 80 to 90%.

Consider `CC(C)CNC(=O)c1cc(CN2CCc3c(F)cc(F)cc32)c2oc(N3CCOCC3)cc(=O)c2c1` [Compound 85, 8-((4,6-difluoroindolin-1-yl)methyl)-N-isobutyl-2-morpholino-4-oxo-4H-chromene-6-carboxamide], for which the inhibition at 0.5 µM under setting [1] fell in the range of 60 to 80% and the inhibition at 0.5 µM under setting [2] lay within 60 to 80%.

As to `CC(Nc1ccc(F)c(F)c1)c1cc(C(=O)N2CC[C@@H](N(C)C)C2)cn2c(=O)cc(N3CCOCC3)nc12` (stereo partly drawn) [Compound 94, 9-(1-((3,4-difluorophenyl)amino)ethyl)-7-((R)-3-(dimethylamino)pyrrolidine-1-carbonyl)-2-morpholino-4H-pyrido[1,2-a]pyrimidin-4-one], the inhibition at 0.5 µM (read-out: Index of AI (HCC70) p-AKT Thr 308) is 60 to 80% and the inhibition at 0.5 µM (read-out: Index of AI (HCC70) p-AKT ser 473) lay within 60 to 80%.

`CCN(CC)C(=O)c1cc(CN2CCc3c(F)cc(F)cc32)c2oc(N3CCOCC3)cc(=O)c2c1` [Compound 78, 8-((4,6-difluoroindolin-1-yl)methyl)-N,N-diethyl-2-morpholino-4-oxo-4H-chromene-6-carboxamide]: the inhibition at 0.5 µM by setting is: under setting [1], 80 to 90%; under setting [2], 80 to 90%.

Consider `CC(Nc1cc(F)cc(F)c1)c1cc(C(=O)N2CC3(C2)CS(=O)(=O)C3)cc2c(=O)cc(N3CCOCC3)oc12` (centres unmarked) [Compound 28, 8-(1-((3,5-difluorophenyl)amino)ethyl)-6-(2,2-dioxido-2-thia-6-azaspiro[3.3]heptane-6-carbonyl)-2-morpholino-4H-chromen-4-one], for which the inhibition at 0.5 µM under setting [1] was in the range of 60 to 80% and the inhibition at 0.5 µM under setting [2] lay within 60 to 80%.

Turning to `CC1(C)CN(C(=O)c2cc(CN3CCc4c(F)cc(F)cc43)c3oc(N4CCOCC4)cc(=O)c3c2)C1` [Compound 87, 8-((4,6-difluoroindolin-1-yl)methyl)-6-(3,3-dimethylazetidine-1-carbonyl)-2-morpholino-4H-chromen-4-one], the inhibition at 0.5 µM fell in the range of 60 to 80% under setting [1] and 60 to 80% under setting [2].
